Values quoted from earlier work, collected in US9156886B2, “Cyclosporin analogues for preventing or treating hepatitis C infection” (priority 2009, dated 2015).

Assays:
[1] = test system: hepatitis C virus; conditions: published results, Antiviral Research 65(3):A41 (2005)
[2] = target: cyclophilin A (Homo sapiens, UniProt P62937)
Chain of cyclophilin A (P62937 whole entry, species assumed): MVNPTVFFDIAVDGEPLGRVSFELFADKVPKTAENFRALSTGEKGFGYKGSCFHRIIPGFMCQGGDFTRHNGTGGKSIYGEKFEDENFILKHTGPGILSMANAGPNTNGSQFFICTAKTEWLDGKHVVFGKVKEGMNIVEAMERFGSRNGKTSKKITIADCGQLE

## C/C=C/C[C@@H](C)[C@@H](O)[C@H]1C(=O)N[C@@H](CC)C(=O)N(C)[C@H](C)C(=O)N(CC)[C@@H](C(C)C)C(=O)N[C@@H](C(C)C)C(=O)N(C)[C@@H](CC(C)C)C(=O)N[C@@H](C)C(=O)N[C@H](C)C(=O)N(C)[C@@H](CC(C)C)C(=O)N(C)[C@@H](CC(C)C)C(=O)N(C)[C@@H](C(C)C)C(=O)N1C [DEBIO-025]
[1]
  inhibition of hepatitis C virus replication: potent and selective inhibition
[2]
  binding affinity for cyclophilin A: potent binding affinity
